Here are results for one compound from ChEMBL document CHEMBL5120857, “Rational design, synthesis and biological evaluation of dual PARP-1/2 and TNKS1/2 inhibitors for cancer therapy” (Eur J Med Chem, 2022).

The subject of data set [1] is HCT-116. Kind of data set: Inhibition of Wnt/beta-Catenin signaling in human HCT-116 cells assessed as decrease in active beta-catenin levels at 10 uM by Western blot analysis. The data set is classed as cell-based. Background: In western blotting, separated proteins are transferred to a membrane and probed.
Data set [2] has as its target T1, Protein mono-ADP-ribosyltransferase PARP10 (Homo sapiens, UniProt Q53GL7).
T1 sequence (Q53GL7 whole entry): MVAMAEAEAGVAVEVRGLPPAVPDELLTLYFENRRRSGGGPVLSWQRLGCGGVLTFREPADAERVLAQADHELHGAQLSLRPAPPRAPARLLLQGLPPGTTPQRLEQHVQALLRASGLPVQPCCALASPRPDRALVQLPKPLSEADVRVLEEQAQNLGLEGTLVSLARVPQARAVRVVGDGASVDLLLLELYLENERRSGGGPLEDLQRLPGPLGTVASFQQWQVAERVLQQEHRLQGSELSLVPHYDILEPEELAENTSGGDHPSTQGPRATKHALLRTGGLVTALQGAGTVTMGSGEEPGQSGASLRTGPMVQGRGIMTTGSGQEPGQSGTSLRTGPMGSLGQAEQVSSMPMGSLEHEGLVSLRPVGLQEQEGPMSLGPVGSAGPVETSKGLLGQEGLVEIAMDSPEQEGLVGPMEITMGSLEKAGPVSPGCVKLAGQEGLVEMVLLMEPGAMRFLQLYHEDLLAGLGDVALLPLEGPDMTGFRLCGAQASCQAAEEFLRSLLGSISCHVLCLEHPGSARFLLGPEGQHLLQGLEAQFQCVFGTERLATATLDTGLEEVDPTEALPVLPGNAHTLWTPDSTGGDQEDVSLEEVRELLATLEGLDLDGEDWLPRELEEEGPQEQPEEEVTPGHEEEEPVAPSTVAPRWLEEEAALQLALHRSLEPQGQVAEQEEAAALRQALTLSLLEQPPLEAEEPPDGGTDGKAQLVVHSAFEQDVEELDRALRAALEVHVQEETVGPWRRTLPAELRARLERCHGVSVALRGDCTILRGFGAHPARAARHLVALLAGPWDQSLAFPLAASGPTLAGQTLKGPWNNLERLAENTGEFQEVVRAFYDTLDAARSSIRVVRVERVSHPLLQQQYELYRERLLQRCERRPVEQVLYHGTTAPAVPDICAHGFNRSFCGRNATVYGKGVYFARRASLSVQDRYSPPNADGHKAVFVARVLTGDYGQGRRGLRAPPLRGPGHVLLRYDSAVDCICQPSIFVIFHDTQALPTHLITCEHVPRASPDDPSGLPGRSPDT
Kind of data set: Inhibition of PARP-10 (unknown origin).

The nature of data set [3]: Clearance in Sprague-Dawley rat at 10 mg/kg, po or 1 mg/kg, iv. The data set is classed as ADME, organism-based. The following applies: in vivo.
Data set [4] can be described thus: Toxicity in […] assessed as morphological changes in ileum at 500 mg/kg, ip by H&E staining based histopathological analysis. The data set is classed as organism-based. The following applies: in vivo.
Data set [5] can be described thus: Toxicity in […] assessed as morphological changes in colon at 500 mg/kg, ip by H&E staining based histopathological analysis. Conditions: in vivo. The data set is classed as organism-based.

Activity calls are given as the source filed them. The rule behind the calls is not given here.

As usually defined, the IC50 is the concentration that inhibits the measured activity by half. For `COc1ccc(NC(=O)c2ccc(NC(=O)N3CCN(C(=O)c4cc(Cc5n[nH]c(=O)c6ccccc56)ccc4F)CC3)cc2)cc1`, the inhibition result in data set [1] is “Active”. In data set [2], this compound had an IC50 of 0.14 µM. This compound had a CL in data set [3] of 5.44 L/h/kg. For the same compound, the Activity result in data set [4] and in data set [5] was “Non-Toxic” throughout.
